The record followed here is patent publication EP0148096A1, “Diversely substituted 1-arylamino-3-amino-2-propanols, process for their preparation and their therapeutical application” (CORTIAL S.A., priority 1983, dated 1985).

A short description of data set [1]: acute toxicity, oral administration, solution in Tween. Particulars: mouse, in vivo, souris, voie orale, 300 mg/kg, solution dans le Tween, read-out: mortalité. As to the method: La toxicité a été déterminée chez la souris. En solution dans le Tween et après administration par voie orale le COR37 05C entraine 0 % de mortalité à 500 mg/kg, 40 % à 750 et 40 % à 1000; le COR37 06C entraine 0 % de mortalité à 100 mg/kg, 10 % à 200, 10 % à 250, 90 % à 375, 100 % à 500 (DL50 = 294 mg/kg (261-332); les COR37 09C, COR37 49C et COR37 50C entrainent 0 % de mortalité à 300 mg/kg. En solution dans le Tween et après administration par voie intrapéritonéale le COR37 05C entraine 0 % de

The test system of a further data set is souris. The experiment in a line: acute toxicity, intraperitoneal administration, solution in Tween. Format: in vivo. To be noted: voie intrapéritonéale, 200 mg/kg, solution dans le Tween.
Data set [2] relates to oreillette gauche de cobaye. The experiment in a line: calcium-antagonist activity in vitro, electrically stimulated guinea pig left atrium in low-calcium Tyrode. Format: cell-based. To be noted: 100 Microg/ml; 150 battements/mn, Tyrode pauvre en calcium (0,6mM), addition de 0,6 mM de calcium. As to the method: L'activité anticalcique a été déterminée in vitro sur oreillette gauche de cobaye stimulée électriquement à 150 battements/mn dans une solution de Tyrode pauvre en calcium (0,6mM).

In data set [3] the test system is souris rendue hypercholestérolémique. The experiment in a line: hypolipidaemic activity, hypercholesterolaemic mouse (cholesterol and cholic acid diet, 7 days). Format: in vivo. To be noted: voie orale le 6e et le 7e jour, 400 mg/kg. The method, then:
L'activité hypolipidémiante a été mise en évidence chez la souris rendue hypercholestérolémique par un régime riche en cholestérol et acide cholique pendant 7 jours. Ainsi l'administration par voie orale du COR37 49C le 6e et le 7e jour, entraine une diminution du cholestérol sérique de 22 % à la dose de 400 mg/kg.

The subject of data set [4] is rat en surcharge hydrique. Nature of the data set: diuretic activity, water-loaded rat. Format: in vivo. Particulars: dose orale de 20 mg/kg, fold factor. As to the method:
L'activité diurétique a été déterminée chez le rat. Ainsi le COR37 49C administré au rat en surcharge hydrique à la dose orale de 20 mg/kg multiplie par 2,2 l'excrétion urinaire de sodium.

For a further data set, the target named is T1, H2 (Cavia porcellus, UniProt P47747).
T1 construct: sur l'oreillette droite de cobaye non stimulée; from tissue; host or cells: guinea pig right atrium, unstimulated
Nature of the data set: anti-H2 antihistaminic activity in vitro, unstimulated guinea pig right atrium. Format: cell-based. Particulars: 25 microg/ml; 5 microg/ml d'histamine, oreillette droite de cobaye non stimulée; read-out: inhibition de l'effet chronotrope induit par l'histamine. The source says:
L'activité antihistaminique antiH2 a été mise en évidence in vitro. A la concentration de 25 microg/ml le COR37 49C inhibe à 50 % l'effet chronotrope induit par 5 microg/ml d'histamine sur l'oreillette droite de cobaye non stimulée.

In another data set the target is T2, Hl (Cavia porcellus, UniProt P31389).
T2 construct: in vitro sur iléon de cobaye; from tissue; host or cells: guinea pig ileum
The experiment in a line: anti-H1 antihistaminic activity in vitro, guinea pig ileum. It is filed as cell-based. To be noted: 25 microg/ml; iléon de cobaye; read-out: inhibition des contractions induites par l'histamine. From the text:
L'activité antihistaminique antiHl a été mise en évidence in vitro sur iléon de cobaye. Le COR37 49C employé à la concentration de 25 microg/ml inhibe à 80 % les contractions induites par l'histamine.

T1 sequence (P47747 whole entry): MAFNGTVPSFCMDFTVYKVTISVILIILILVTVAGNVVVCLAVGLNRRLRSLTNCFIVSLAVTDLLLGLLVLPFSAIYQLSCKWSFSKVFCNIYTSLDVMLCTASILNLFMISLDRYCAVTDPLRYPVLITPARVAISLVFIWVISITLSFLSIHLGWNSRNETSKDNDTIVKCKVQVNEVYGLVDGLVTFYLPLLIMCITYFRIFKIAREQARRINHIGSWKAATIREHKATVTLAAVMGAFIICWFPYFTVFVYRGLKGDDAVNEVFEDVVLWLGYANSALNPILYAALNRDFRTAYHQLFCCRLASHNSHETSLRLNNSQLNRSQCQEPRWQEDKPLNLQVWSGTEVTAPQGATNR
T2 sequence (P31389 whole entry): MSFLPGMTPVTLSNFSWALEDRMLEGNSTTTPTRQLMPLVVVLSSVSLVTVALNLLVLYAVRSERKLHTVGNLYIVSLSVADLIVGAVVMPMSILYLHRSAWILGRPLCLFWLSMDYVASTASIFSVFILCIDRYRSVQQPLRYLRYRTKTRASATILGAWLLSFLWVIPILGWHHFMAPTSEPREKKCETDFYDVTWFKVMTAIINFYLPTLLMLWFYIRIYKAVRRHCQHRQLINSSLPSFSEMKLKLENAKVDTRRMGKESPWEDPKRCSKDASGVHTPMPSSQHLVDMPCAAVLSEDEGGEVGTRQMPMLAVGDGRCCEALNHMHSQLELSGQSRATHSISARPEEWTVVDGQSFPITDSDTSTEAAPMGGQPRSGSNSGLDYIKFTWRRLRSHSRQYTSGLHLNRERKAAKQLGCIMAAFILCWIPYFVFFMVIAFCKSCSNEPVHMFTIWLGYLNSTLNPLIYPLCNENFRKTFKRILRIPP

For `CC(C)c1ccccc1NCC(O)CN(C)C` (stereo not shown) [COR37 49C, Dichlorhydrate de l'(isopropyl-2 anilino)-l diméthylamino-3 propanol-2], the mortality in data set [1] is 0%. The mortalité result in the data set with souris is given as “aucune mortalité”. In addition, the activité anticalcique entry in data set [2] is given as “inhibent l'augmentation de la force contractile”. Also, in data set [3], the “diminution du cholestérol sérique” value is 22%. In data set [4], the “multiplication de l'excrétion urinaire de sodium” value is on record as 2,2. Further, the inhibition at 25 µg/mL at H2 worked out at 50%; at Hl, 80%.
